Data published in PubChem BioAssay (NCI).
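These data come from cells grown in 96-well plates and exposed to compound for 48 hours at five concentrations. GI50 marks 50% less growth. TGI: total growth inhibition.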

What was measured:
Test in all cases: inhibition of tumour cell growth, NCI panel, 48 h
786-0 renal = system: 786-0 renal
A498 renal = system: A498 renal
A549 NSCLC = system: A549 NSCLC
ACHN renal = system: ACHN renal
BT-549 breast = system: BT-549 breast
CAKI-1 renal = system: CAKI-1 renal
CCRF-CEM leukemia = system: CCRF-CEM leukemia
COLO 205 colon = system: COLO 205 colon
DU-145 prostate = system: DU-145 prostate
EKVX NSCLC = system: EKVX NSCLC
HCC-2998 colon = system: HCC-2998 colon
HCT-116 colon = system: HCT-116 colon
HCT-15 colon = system: HCT-15 colon
HL-60(TB) leukemia = system: HL-60(TB) leukemia
HOP-62 NSCLC = system: HOP-62 NSCLC
HOP-92 NSCLC = system: HOP-92 NSCLC
HS 578T breast = system: HS 578T breast
HT29 colon = system: HT29 colon
IGROV1 ovarian = system: IGROV1 ovarian
K-562 leukemia = system: K-562 leukemia
KM12 colon = system: KM12 colon
M14 melanoma = system: M14 melanoma
MALME-3M melanoma = system: MALME-3M melanoma
MCF7 breast = system: MCF7 breast
MDA-MB-231 breast = system: MDA-MB-231 breast
MDA-MB-435 = system: MDA-MB-435
MOLT-4 leukemia = system: MOLT-4 leukemia
NCI-H226 lung = system: NCI-H226 lung
NCI-H23 lung = system: NCI-H23 lung
NCI-H460 lung = system: NCI-H460 lung
NCI-H522 lung = system: NCI-H522 lung
NCI/ADR-RES ovarian = system: NCI/ADR-RES ovarian
OVCAR-3 ovarian = system: OVCAR-3 ovarian
OVCAR-4 ovarian = system: OVCAR-4 ovarian
OVCAR-5 ovarian = system: OVCAR-5 ovarian
OVCAR-8 ovarian = system: OVCAR-8 ovarian
PC-3 prostate = system: PC-3 prostate
RPMI-8226 leukemia = system: RPMI-8226 leukemia
RXF 393 renal = system: RXF 393 renal
SF-268 CNS = system: SF-268 CNS
SF-295 CNS = system: SF-295 CNS
SF-539 CNS = system: SF-539 CNS
SK-MEL-2 melanoma = system: SK-MEL-2 melanoma
SK-MEL-28 melanoma = system: SK-MEL-28 melanoma
SK-MEL-5 melanoma = system: SK-MEL-5 melanoma
SK-OV-3 ovarian = system: SK-OV-3 ovarian
SN12C renal = system: SN12C renal
SNB-19 CNS = system: SNB-19 CNS
SNB-75 CNS = system: SNB-75 CNS
SR leukemia = system: SR leukemia
SW-620 colon = system: SW-620 colon
T-47D breast = system: T-47D breast
TK-10 renal = system: TK-10 renal
U251 CNS = system: U251 CNS
UACC-257 melanoma = system: UACC-257 melanoma
UACC-62 melanoma = system: UACC-62 melanoma
UO-31 renal = system: UO-31 renal

Structure (SMILES): CC1(C)[C@@H](NOCCCN)CC[C@]2(C)[C@H]3C(=O)C=C4[C@@H]5C[C@](C)(C(=O)O)CC[C@]5(C)CC[C@@]4(C)[C@]3(C)CC[C@@H]12
- GI50 (786-0 renal): 6.23 µM
- TGI (786-0 renal): 19.2 µM
- GI50 (A498 renal): 17.8 µM
- TGI (A498 renal): 43 µM
- GI50 (A549 NSCLC): 6.13 µM
- TGI (A549 NSCLC): 33.6 µM
- GI50 (ACHN renal): 7.87 µM
- TGI (ACHN renal): 21.2 µM
- GI50 (BT-549 breast): 9.44 µM
- TGI (BT-549 breast): 47.8 µM
- GI50 (CAKI-1 renal): 2.44 µM
- TGI (CAKI-1 renal): 6.26 µM
- GI50 (CCRF-CEM leukemia): 7.52 µM
- TGI (CCRF-CEM leukemia): > 100 µM
- GI50 (COLO 205 colon): 2.41 µM
- TGI (COLO 205 colon): 6.34 µM
- GI50 (DU-145 prostate): 4.63 µM
- TGI (DU-145 prostate): 15.4 µM
- GI50 (EKVX NSCLC): 14 µM
- TGI (EKVX NSCLC): 44.8 µM
- GI50 (HCC-2998 colon): 3.59 µM
- TGI (HCC-2998 colon): 13.1 µM
- GI50 (HCT-116 colon): 2.95 µM
- TGI (HCT-116 colon): 11.5 µM
- GI50 (HCT-15 colon): 3.6 µM
- TGI (HCT-15 colon): > 100 µM
- GI50 (HL-60(TB) leukemia): 1.89 µM
- TGI (HL-60(TB) leukemia): 4.16 µM
- GI50 (HOP-62 NSCLC): 13.5 µM
- TGI (HOP-62 NSCLC): 48.4 µM
- GI50 (HOP-92 NSCLC): 2.38 µM
- TGI (HOP-92 NSCLC): 12.3 µM
- GI50 (HS 578T breast): 4.23 µM
- TGI (HS 578T breast): 50 µM
- GI50 (HT29 colon): 3.45 µM
- TGI (HT29 colon): 16.1 µM
- GI50 (IGROV1 ovarian): 12.2 µM
- TGI (IGROV1 ovarian): 24.6 µM
- GI50 (K-562 leukemia): 2.57 µM
- TGI (K-562 leukemia): 12.1 µM
- GI50 (KM12 colon): 3.27 µM
- TGI (KM12 colon): 12.6 µM
- GI50 (M14 melanoma): 8.46 µM
- TGI (M14 melanoma): 28.8 µM
- GI50 (MALME-3M melanoma): 4.56 µM
- TGI (MALME-3M melanoma): 16.9 µM
- GI50 (MCF7 breast): 4.09 µM
- TGI (MCF7 breast): 17.1 µM
- GI50 (MDA-MB-231 breast): 8.57 µM
- TGI (MDA-MB-231 breast): 22.1 µM
- GI50 (MDA-MB-435): 6.08 µM
- TGI (MDA-MB-435): 23.6 µM
- GI50 (MOLT-4 leukemia): 4.63 µM
- TGI (MOLT-4 leukemia): 43 µM
- GI50 (NCI-H226 lung): 5.46 µM
- TGI (NCI-H226 lung): 19.2 µM
- GI50 (NCI-H23 lung): 10.7 µM
- TGI (NCI-H23 lung): 64.7 µM
- GI50 (NCI-H460 lung): 8.29 µM
- TGI (NCI-H460 lung): 46 µM
- GI50 (NCI-H522 lung): 2.08 µM
- TGI (NCI-H522 lung): 4.85 µM
- GI50 (NCI/ADR-RES ovarian): 10.6 µM
- TGI (NCI/ADR-RES ovarian): 69.4 µM
- GI50 (OVCAR-3 ovarian): 4.17 µM
- TGI (OVCAR-3 ovarian): 19.7 µM
- GI50 (OVCAR-4 ovarian): 8.69 µM
- TGI (OVCAR-4 ovarian): 34.8 µM
- GI50 (OVCAR-5 ovarian): 14.1 µM
- TGI (OVCAR-5 ovarian): 28.1 µM
- GI50 (OVCAR-8 ovarian): 6.18 µM
- TGI (OVCAR-8 ovarian): 28.7 µM
- GI50 (PC-3 prostate): 3.66 µM
- TGI (PC-3 prostate): 19 µM
- GI50 (RPMI-8226 leukemia): 2.8 µM
- TGI (RPMI-8226 leukemia): 19.7 µM
- GI50 (RXF 393 renal): 2.3 µM
- TGI (RXF 393 renal): 5.31 µM
- GI50 (SF-268 CNS): 8.92 µM
- TGI (SF-268 CNS): 21.6 µM
- GI50 (SF-295 CNS): 10.3 µM
- TGI (SF-295 CNS): 29.1 µM
- GI50 (SF-539 CNS): 11.9 µM
- TGI (SF-539 CNS): 24.2 µM
- GI50 (SK-MEL-2 melanoma): 5.3 µM
- TGI (SK-MEL-2 melanoma): 26.6 µM
- GI50 (SK-MEL-28 melanoma): 4.08 µM
- TGI (SK-MEL-28 melanoma): 13.6 µM
- GI50 (SK-MEL-5 melanoma): 3.17 µM
- TGI (SK-MEL-5 melanoma): 10.9 µM
- GI50 (SK-OV-3 ovarian): 17.8 µM
- TGI (SK-OV-3 ovarian): 67 µM
- GI50 (SN12C renal): 4.6 µM
- TGI (SN12C renal): 19.5 µM
- GI50 (SNB-19 CNS): 13.5 µM
- TGI (SNB-19 CNS): 43.7 µM
- GI50 (SNB-75 CNS): 12 µM
- TGI (SNB-75 CNS): 42.4 µM
- GI50 (SR leukemia): 2.27 µM
- TGI (SR leukemia): 6.89 µM
- GI50 (SW-620 colon): 3.41 µM
- TGI (SW-620 colon): 14 µM
- GI50 (T-47D breast): 3.42 µM
- TGI (T-47D breast): 22.4 µM
- GI50 (TK-10 renal): 16.7 µM
- TGI (TK-10 renal): 36 µM
- GI50 (U251 CNS): 4.49 µM
- TGI (U251 CNS): 25.4 µM
- GI50 (UACC-257 melanoma): 6.81 µM
- TGI (UACC-257 melanoma): 32.3 µM
- GI50 (UACC-62 melanoma): 3.85 µM
- TGI (UACC-62 melanoma): 14.8 µM
- GI50 (UO-31 renal): 7.44 µM
- TGI (UO-31 renal): 20.4 µM
